Data from paper PMC4117522, “Proteasome Inhibitors Alter Levels of Intracellular Peptides in HEK293T and SH-SY5Y Cells” (PLoS ONE, 2014).
Read-outs that look alike come from different tables or passages of the source.

Key:
[1] = tested on: HEK293T cell aminopeptidase activity (Ala-AMC cleavage); test: Aminopeptidase assay with Ala-AMC in HEK293T cell extracts; type: biochemical, human; conditions: HEK293T cell extract; for residual amount of activity: 50 µM; for effect on cleavage of Ala-AMC: 10 µM inhibitor
Protocol: (§1) All enzyme assays described below were performed in the linear range of the assay, as determined from time-course studies. HEK293T cells were lysed by sonication in 50 mM TrisHCl buffer, pH 7.5, containing 40 mM KCl, 5 mM MgCl2, 0.5 mM ATP, and 1 mM DTT (Buffer 1).
(§2) To measure TPP2, the fluorescent substrate was Ala-Ala-Phe-AMC. Aminopeptidase (AP) assays were performed with Leu-AMC and Ala-AMC, which detect leucine aminopeptidase (LAP), puromycin-sensitive aminopeptidase (PSAP), and other enzymes. To measure the effect of aminopeptidase/proteasome inhibitors on cleavage of Ala-Ala-Phe-AMC and Leu-AMC, 1∶50 dilution of the cell extract was pre-incubated with the inhibitor and Buffer 1 for 30 min, followed by addition of 100 µM final concentration of the respective substrate. For Ala-AMC, the same dilution of the cell extract was pre-incubated with the inhibitor and 50 mM MOPS buffer, pH 7.5, containing 40 mM KCl, 5 mM MgCl2, 0.5 mM ATP, and 1 mM DTT (Buffer 2), followed by addition of 100 µM final concentration of the substrate. After incubation at 37°C for 1 hour, enzyme activity was quantified by fluorescence measurement of the substrate (380 nm excitation, 460 nm emission).
(§3) Figure 7 Effect of aminopeptidase inhibitors on Ala-AMC and Leu-AMC cleavage. HEK 293T cell extract (panels A–D) or recombinant PSAP (panels E–F) were treated with increasing concentrations of bestatin or puromycin for 30 minutes followed by the addition of substrate and incubation for 1 hour. Enzyme activity was determined by fluorescence measurement of AMC and expressed as percentage enzyme activity relative to the control without inhibitor. (A) Bestatin inhibition of HEK293T cell extract assayed with Ala-AMC. (B) Bestatin inhibition of HEK293T cell extract assayed with Leu-AMC. (C) Puromycin inhibition of HEK293T cell extract assayed with Ala-AMC. (D) Puromycin inhibition of HEK293T cell extract assayed with Leu-AMC. (E) Puromycin inhibition of purified PSAP assayed with Ala-AMC. (F) Puromycin inhibition of purified PSAP assayed with Leu-AMC. Error bars show standard error of mean (n = 4), points without error bars had error ranges smaller than the symbol size. Statistical analysis was performed using Student’s t-test: *, p≤0.05; **, p≤0.01; ***, p≤0.001; ns, no significant difference (p>0.05) versus the control.
(§4) Figure 8 Effect of proteasome inhibitors on Ala-AMC and Leu-AMC cleavage. HEK 293T cell extract or recombinant PSAP was treated with 10 µM of each of the proteasome inhibitors for 1 hour in addition to a 30 min pre-incubation without the substrate. Enzyme activity was determined by fluorescence measurement of AMC and expressed as percentage enzyme activity relative to the control without inhibitor. Panels A and B represent the effect of proteasome inhibitors on cleavage of Ala-AMC and Leu-AMC respectively, in HEK293T cell extract. […] Error bars show standard error of mean (n = 4). Statistical analysis was performed using Student’s t-test: *, p≤0.05; **, p≤0.01; ***, p≤0.001; ns, no significant difference (p>0.05) versus the control.

[2] = tested on: HEK293T cell aminopeptidase activity (Leu-AMC cleavage); test: Aminopeptidase assay with Leu-AMC in HEK293T cell extracts; type: biochemical, human; conditions: HEK293T cell extract; for effect on cleavage of Leu-AMC: 10 µM inhibitor
Protocol: as §1, §2, §3, §4

[3] = target: T1, proteasome (beta 5, chymotrypsin-like activity) in HEK293T cell extract (Homo sapiens, UniProt P20618+P28074); test: Proteasome activity in HEK293T cell extracts with beta 5-selective substrate Suc-Leu-Leu-Val-Tyr-AMC; type: biochemical; conditions: Suc-Leu-Leu-Val-Tyr-AMC, 30 min pre-incubation, 1 hour, read-out: IC50, inhibition of proteasome activity
T1 construct: endogenous in cells; host or cells: HEK293T
Protocol: as §1
To measure proteasome activity, a 1∶50 dilution of the cell extract was pre-incubated with the inhibitor and Buffer 1 for 30 min, followed by addition of 100 µM final concentration of the proteasome substrate succinyl-Leu-Leu-Val-Tyr-7-amino-4-methylcoumarin (Suc-Leu-Leu-Val-Tyr-AMC). After incubation at 37°C for 1 hour, proteasomal activity was quantified by fluorescence measurement of the substrate (380 nm excitation, 460 nm emission).
Figure 2 Inhibition of proteasome activity in HEK293T cells with various proteasome inhibitors. HEK293T cell extract was treated with increasing concentrations of the indicated compound for […] and incubation for 1 hour […]. Enzyme activity was determined by fluorescence measurement of AMC. The resulting activity is expressed as percent enzyme activity relative to the control reaction without inhibitor.

HEK293T cells [4] = test: Quantitative peptidomics (TMAB isotopic labels, LC-MS/MS) of inhibitor-treated HEK293T cells; type: cell-based, human; conditions: HEK293T cells
Protocol: (§5) HEK293T and SH-SY5Y cells were grown to 80–90% confluence in DMEM and RPMI supplemented with 10% fetal bovine serum and penicillin/streptomycin. A single plate of cells (150 mm×25 mm) was used for each group. At the start of the experiment, media were removed from the plates and cells were washed with DPBS (138 mM NaCl, 8.06 mM Na2HPO4, 2.67 mM KCl, 1.47 mM KH2PO4, 0.9 mM CaCl2 and 0.49 mM MgCl2). This was followed by addition of serum-free media containing the proteasome or aminopeptidase inhibitors, or 0.05% DMSO as a control for the inhibitors that were soluble in DMSO. Each experiment consisted of two control groups and two or three replicate groups of cells treated with one of the inhibitors. The cells were incubated at 37°C for 20 minutes, following which media containing the inhibitor was removed, cells were washed with DPBS, detached from the plate by scraping into DPBS (without trypsin), and centrifuged at 800×g for 5 min. The wash buffer was supplemented with the appropriate inhibitor at the same concentration as used for the treatment, thereby ensuring that the changes induced in peptide levels were not reversed during harvesting of cells due to possible dissociation of the reversible inhibitors. The wash time (including centrifugation) was 15 minutes, for a total treatment time of 35 minutes. After centrifugation, the cell pellet was resuspended in 1 ml of 80°C water and incubated in an 80°C water bath for 20 minutes to inactivate proteases. The mixture was again centrifuged (13,000×g, 30 min, 4°C) and was stored at −80°C overnight. For peptide extraction, the samples were thawed and centrifuged again. The lysate was subsequently cooled on ice and acidified with HCl to a final concentration of 10 mM. After 15 min incubation on ice, the lysate was centrifuged at 13,000×g for 30 min at 4°C. To the supernatant, 250 µL of dibasic sodium phosphate (0.4 M, pH 9.5) was added and the mixture was stored at −80°C until labeling.
(§6) The labeling protocol has been earlier described in detail. Each group within an experiment (control/treated) was labeled with a different isotopic tag. The TMAB-NHS labels were dissolved in DMSO to a concentration of 400 µg/µL and 15 mg of label was used per 150 mm plate of cells. […] At the beginning, the pH of the peptide extract was adjusted to 9.5 with 1 M NaOH. Labeling was performed over 8 rounds; 4.69 µL of the label was added to the extract every 20 min. The pH was measured between each round and if necessary, brought back to 9.5 for the first five rounds. For rounds 6–8, the pH was not adjusted after the addition of the TMAB-NHS reagent. After the final round of label addition, the pH was adjusted to 9.5 again and the extracts were incubated at room temperature for 90 min. Thereafter, 30 µL of 2.5 M glycine was added to quench any unreacted label. Following 40 min incubation at room temperature, the labeled extracts for a single experiment were pooled and filtered through Amicon Ultracel-10 K units. It is important to ensure that only N-terminal amines and lysine side-chain amines of peptides are TMAB-labeled and not tyrosines. To hydrolyze any labeled tyrosine, 30 µL of a 2 M solution of hydroxylamine hydrochloride (pH 3.7) was added over three rounds to the pooled and filtered sample. The pH was measured after the addition of hydroxylamine and adjusted to 9.0 with 1 M NaOH. The samples were desalted through PepClean C-18 spin columns (Thermo Scientific, Rockford, IL, USA) by following manufacturer’s instructions. Peptides were eluted using 160 µL of 0.5% TFA and 70% acetonitrile, frozen at −80°C and then lyophilized in a vacuum centrifuge and stored at −80°C until analysis by mass spectrometry.
(§7) The LC-MS/MS experiments were performed on a Synapt G2 mass spectrometer coupled to a NanoAcquity capillary liquid chromatography system (Waters Co., Milford, MA, USA).

[5] = target: T2, recombinant human puromycin-sensitive aminopeptidase (PSAP, rhNPEPPS) (Homo sapiens, UniProt P55786); test: Cleavage of Leu-AMC and Ala-AMC by purified recombinant PSAP; type: biochemical; conditions: for effect on cleavage of Ala-AMC by purified PSAP: 10 µM inhibitor
T2 construct: purchased R&D Systems
Protocol: To measure the effect of inhibitors on cleavage of Leu-AMC and Ala-AMC by purified PSAP, recombinant human PSAP (rhNPEPPS, R&D Systems) was diluted 1∶2000 in Buffer 2 containing 0.1 mg/ml BSA. The enzyme was pre-incubated with the inhibitor and Buffers 1 or 2, followed by addition of 100 µM final concentration of Leu-AMC (to the mix containing Buffer 1) and Ala-AMC (to the mix containing Buffer 2). After incubation at 37°C for 1 hour, PSAP activity was quantified by fluorescence measurement of the substrate (380 nm excitation, 460 nm emission).
as §3, §4

[6] = tested on: tripeptidyl peptidase 2 (TPP2); test: Ala-Ala-Phe-AMC cleavage (TPP2 substrate) in HEK293T cell extracts; type: biochemical, human; conditions: HEK293T cell extract, micromolar concentrations
Protocol: as §1, §2
Enzyme activity was determined by fluorescence measurement of AMC and expressed as percentage enzyme activity relative to the control lacking inhibitor. […]

HEK293T cells [7] = conditions: cited from earlier work
SH-SY5Y cells = test: Quantitative peptidomics (TMAB isotopic labels, LC-MS/MS) of inhibitor-treated SH-SY5Y cells; type: cell-based, human; conditions: SH-SY5Y cells, 35 min; 2.5 µM MG132, 1 µM other inhibitors
Protocol: as §5, §6, §7

[8] = 35 min, 2.5 µM MG132, 1 µM other inhibitors

T2 sequence (P55786 whole entry): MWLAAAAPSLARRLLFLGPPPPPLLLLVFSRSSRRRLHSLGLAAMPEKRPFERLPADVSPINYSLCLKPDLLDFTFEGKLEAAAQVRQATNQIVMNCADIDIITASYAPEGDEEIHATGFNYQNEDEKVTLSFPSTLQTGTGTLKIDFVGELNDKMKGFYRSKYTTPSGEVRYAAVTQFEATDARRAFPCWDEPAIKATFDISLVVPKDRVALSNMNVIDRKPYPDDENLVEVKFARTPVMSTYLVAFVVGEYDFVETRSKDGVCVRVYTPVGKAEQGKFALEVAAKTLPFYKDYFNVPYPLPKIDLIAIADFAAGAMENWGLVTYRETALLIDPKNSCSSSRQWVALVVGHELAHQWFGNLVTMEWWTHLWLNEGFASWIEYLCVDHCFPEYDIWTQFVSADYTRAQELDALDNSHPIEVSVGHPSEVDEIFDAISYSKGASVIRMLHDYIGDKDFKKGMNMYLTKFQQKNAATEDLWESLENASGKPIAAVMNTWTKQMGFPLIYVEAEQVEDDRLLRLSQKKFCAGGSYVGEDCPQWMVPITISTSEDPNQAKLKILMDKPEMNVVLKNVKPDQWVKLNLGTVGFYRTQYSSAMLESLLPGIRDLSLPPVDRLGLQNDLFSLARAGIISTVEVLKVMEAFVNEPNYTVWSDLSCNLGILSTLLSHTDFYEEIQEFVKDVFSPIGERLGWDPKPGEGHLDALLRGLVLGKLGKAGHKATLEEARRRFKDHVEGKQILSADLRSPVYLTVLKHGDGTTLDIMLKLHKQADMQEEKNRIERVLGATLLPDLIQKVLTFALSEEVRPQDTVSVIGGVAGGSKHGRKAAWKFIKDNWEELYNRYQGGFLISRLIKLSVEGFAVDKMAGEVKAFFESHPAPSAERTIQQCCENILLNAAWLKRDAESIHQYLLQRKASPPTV

In the case of `CC(C)C[C@H](NC(=O)[C@@H](O)[C@H](N)Cc1ccccc1)C(=O)O` [bestatin], the “inhibition of Ala-AMC cleavage” value [1] is reported as > 80%, the “residual amount of activity” value [1] is reported as ~20% and the “Enzyme activity (% control with no inhibitor)” value ([1]; Ala-AMC, bestatin 500 µM, bortezomib 0) is reported as 15.5±0.7 % control with no inhibitor. For the same compound, the “inhibition of Leu-AMC cleavage” value [2] was > 80%.

For `CC(C)[C@H](O)[C@@]12NC(=O)[C@H](C)[C@@H]1OC2=O` [clasto-Lactacystin β-lactone, reference compound], the IC50 [3] was ~10 µM and the “change in levels of intracellular peptides (peptidome)” value (“change in levels” for short) (HEK293T cells [4]; [8]) was “the majority of peptides was greatly decreased”.

With `CC(C)C[C@H](NC(=O)CNC(=O)c1cc(Cl)ccc1Cl)B(O)O` [MLN2238] the “change in levels” value (HEK293T cells [4]; [8]) was “the majority of peptides was greatly decreased”, the “effect on cleavage of Ala-AMC” value [1] was “inhibit” and the “effect on cleavage of Leu-AMC” value [2] was “inhibit”. For the same compound, the “effect on cleavage of Ala-AMC by purified PSAP” value [5] was “inhibitory”.

For `COc1ccc(C[C@H](N)C(=O)N[C@H]2[C@@H](O)[C@H](n3cnc4c(N(C)C)ncnc43)O[C@@H]2CO)cc1` [puromycin], the “inhibition of Ala-AMC cleavage” value [1] was > 80%, the “residual amount of activity” value [1] was ~20% and the “inhibition of Leu-AMC cleavage” value [2] was > 80%. For the same compound, the “potency on purified PSAP versus HEK293T cell extract” value ([5]; Ala-AMC and Leu-AMC) was “comparable”.

In the case of `CCCCNC(=O)[C@@H]1Cc2ccccc2N1C(=O)[C@@H](N)CC` [butabindide, reference compound], the “change in levels” value (HEK293T cells [4]; 100 µM bestatin methyl ester 75 min, 100 µM butabindide 35 or 75 min, bestatin) is reported as “failed to substantially alter the peptide levels” and the “inhibition of Ala-Ala-Phe-AMC cleavage” value [6] is reported as “Approximately 50%”.

For `CC[C@H](C)[C@H](NC(=O)[C@H]([C@@H](C)CC)N(C)C(C)=O)C(=O)N[C@H](C(=O)N[C@@H](CC(C)C)C(=O)[C@@]1(C)CO1)[C@@H](C)O` [epoxomicin], the “change in levels” value (HEK293T cells [7]; HEK293T cells, 0.2 µM for 1 hour) is listed as “the majority of peptides was greatly decreased” and the “levels of peptides arising from cleavage at beta 1 sites” value (HEK293T cells [7]; cells treated for 1 hour with 2 µM) is listed as “greatly elevated”.

In the case of `CC(C)C[C@H](NC(=O)[C@H](CC(C)C)NC(=O)[C@H](CC(C)C)NC(=O)OCc1ccccc1)B(O)O` [MG262], the “change in levels” value (HEK293T cells [4]; [8]) is reported as “changes that were generally similar to those caused by 500 nM bortezomib”, the “effect on cleavage of Ala-AMC” value [1] is reported as “inhibit” and the “change in levels” value (SH-SY5Y cells) is reported as “changes that were generally similar to those caused by 500 nM bortezomib”. The “effect on cleavage of Leu-AMC” value [2] was “inhibit” and the “effect on cleavage of Ala-AMC by purified PSAP” value [5] was “inhibitory”.
